The numbers were not newly measured in patent US6046331A, “Imidazolones and their use in treating benign prostatic hyperplasia and other disorders” (Synaptic Pharmaceutical Corporation, priority 1998, dated 2000), which cites them from elsewhere.

For series [1] the following is noted: in vivo; cited from earlier work.
For series [2] the following is noted: cited from earlier work.

Structures are written as SMILES.

Consider `COc1cc2nc(N3CCN(C(=O)c4ccco4)CC3)nc(N)c2cc1OC` [prazosin], for which, in series [1], the side effects result was “untoward side effects”. In series [2], the “relieving the symptoms of / treating BPH” value is “useful for treating BPH”.

Take `CC(COc1ccccc1)N(CCCl)Cc1ccccc1` (stereo not shown) [phenoxybenzamine]: the side effects entry in series [1] is “significant side effects such as dizziness and asthenia”. In series [2], the “relieving the symptoms of / treating BPH” value is “useful in relieving the symptoms of BPH”.

Turning to `COc1cc2nc(N3CCN(C(=O)C4CCCO4)CC3)nc(N)c2cc1OC` (stereo not shown) [terazosin], the side effects entry in series [1] was “untoward side effects”. Also, the “relieving the symptoms of / treating BPH” value in series [2] is “useful for treating BPH”.

In the case of `Clc1cccc(Cl)c1N=C1NCCN1` [clonidine], in series [1], the side effects result is “dry mouth and sedation”.
